Assays:
[1] = molecular target: Sigma non-opioid intracellular receptor 1 (Homo sapiens, UniProt Q99720); test: biochemical
Description: Displacement of [3H](+)pentazocine from human sigma 1 receptor transfected in HEK293 cell membranes after 120 mins by scintillation counter

[2] = Displacement of [3H]di-o-tolylguanidine from sigma 2 receptor in guinea pig brain membranes after 120 mins by scintillation counter; assay type: cell membranes, Cavia porcellus, Membrane

Sigma non-opioid intracellular receptor 1, sequence (Q99720 whole entry): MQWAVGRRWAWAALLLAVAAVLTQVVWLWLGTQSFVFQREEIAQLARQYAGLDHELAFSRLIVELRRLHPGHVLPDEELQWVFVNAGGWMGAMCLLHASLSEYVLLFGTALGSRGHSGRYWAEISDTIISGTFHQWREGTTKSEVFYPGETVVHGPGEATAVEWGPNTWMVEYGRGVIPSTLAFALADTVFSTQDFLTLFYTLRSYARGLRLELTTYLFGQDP

Row | Compound | Ki [1] | Ki [2]
1 | Clc1ccc(-n2ccc(OCCN3CCOCC3)n2)cc1Cl | 8.2 nM | 280 nM
2 | Clc1ccc(-n2ccc(OCCOCCN3CCCCC3)n2)cc1Cl | 36.8 nM | 14.2 nM
3 | Clc1ccc(-n2ccc(NCCN3CCCCC3)n2)cc1Cl | 9.5 nM | 90.5 nM
4 | Clc1ccc(-n2ccc(OCCCCN3CCSCC3)n2)cc1Cl | 10.2 nM | 344 nM
5 | CN1CCN(CC(O)COc2ccn(-c3ccc(Cl)c(Cl)c3)n2)CC1 (centres undefined) | 233 nM | > 1000 nM
6 | Clc1ccc(-n2ccc(OCCN3CCCCC3)n2)cc1Cl | 16.7 nM | 64.7 nM
7 | O=C(CN1CCCCC1)Nc1ccn(-c2ccc(Cl)c(Cl)c2)n1 | 80.8 nM | > 1000 nM
8 | Clc1ccc(-n2ccc(OCCCCN3CCOCC3)n2)cc1Cl | 17.6 nM | 829 nM
9 | O=S(=O)(CCN1CCOCC1)OCCOc1ccn(-c2ccc(Cl)c(Cl)c2)n1 | 879 nM | > 1000 nM
10 | Clc1ccc(-n2ccc(OCCN3CCOCC3)n2)cc1 | 17.8 nM | 357 nM
11 | Clc1ccc(-n2ccc(OCCCN3CCOCC3)n2)cc1Cl | 16.1 nM | 394 nM
12 | CCN(CC)CCCCOc1ccn(-c2ccc(Cl)c(Cl)c2)n1 | 17.2 nM | 104 nM
13 | COCCN(C)CCCCOc1ccn(-c2ccc(Cl)c(Cl)c2)n1 | 8.2 nM | 66.3 nM
14 | O=C(CCCN1CCC(O)(c2ccc(Cl)cc2)CC1)c1ccc(F)cc1 [HALOPERIDOL] | – | 22 nM
15 | Cc1c(OCCN2CCOCC2)nn(-c2ccc(Cl)c(Cl)c2)c1C | 9.4 nM | 351 nM
16 | CC1CCN(CCOc2ccn(-c3ccc(Cl)c(Cl)c3)n2)CC1 | 8.6 nM | 32.8 nM
17 | CC(C)(C)n1ccc(OCCN2CCOCC2)n1 | > 1000 nM | > 1000 nM
18 | Clc1ccc(-n2ccc(OCCCN3CCCCC3)n2)cc1Cl | 9.6 nM | 37.2 nM
19 | Cc1cc(OCCNC2CCCCC2)nn1-c1ccc(Cl)c(Cl)c1 | 8.5 nM | 8.8 nM
20 | CCN(CC)CCOc1cc(C)n(-c2ccc(Cl)c(Cl)c2)n1 | 9.9 nM | 250 nM
21 | Clc1ccc(-n2ccc(OCCN3CCCCCC3)n2)cc1Cl | 8.9 nM | –
22 | CN(CCCCOc1ccn(-c2ccc(Cl)c(Cl)c2)n1)Cc1ccccc1 | 24 nM | 46.3 nM

Other lines, results leading:

Row | Ki [1] | Ki [2] | Compound
23 | > 1000 nM | > 1000 nM | Cc1cc(OCCN2CCOCC2)n(-c2ccc3ccccc3c2)n1
24 | 18.9 nM | 638 nM | Cc1cc(OCCCN2CCOCC2)nn1-c1ccc(Cl)c(Cl)c1
25 | 296 nM | 324 nM | CC(=O)N1CCN(CCCCOc2cc(C)n(-c3ccc4ccccc4c3)n2)CC1
26 | 99.1 nM | 428 nM | Cc1cc(OCCCCN2CCOCC2)nn1-c1ccc2ccccc2c1
27 | 8.4 nM | 161 nM | Cc1cc(OCCN2CCC(C)CC2)nn1-c1ccc(Cl)c(Cl)c1
28 | 139 nM | > 1000 nM | Cc1c(OCCN2CCOCC2)nn(-c2ccc3ccccc3c2)c1C
29 | 172 nM | > 1000 nM | CC(C)c1cc(OCCN2CCOCC2)nn1-c1ccc(Cl)c(Cl)c1
30 | 83.4 nM | > 1000 nM | CC(=O)N1CCN(CCOc2cc(C)n(-c3ccc4ccccc4c3)n2)CC1
31 | 13.3 nM | 245 nM | Cc1cc(OCCCCN2CCOCC2)nn1-c1ccc(Cl)c(Cl)c1
32 | 26 nM | 26.7 nM | Cc1cc(OCCCCN2CCC(c3ccccc3)CC2)nn1-c1ccc(Cl)c(Cl)c1
33 | 9.9 nM | 102 nM | Cc1cc(OCCCCN2CCN(C)CC2)nn1-c1ccc(Cl)c(Cl)c1
34 | 854 nM | > 1000 nM | Cc1cc(OCCCCn2ccnc2)nn1-c1ccc(Cl)c(Cl)c1
35 | 14.8 nM | 563 nM | Cc1cc(OCCN2CCN(c3ccccc3)CC2)nn1-c1ccc(Cl)c(Cl)c1
36 | 5.5 nM | 209 nM | Cc1cc(OCCN2CCCCC2)nn1-c1ccc(Cl)c(Cl)c1
37 | 65 nM | 226 nM | Cc1cc(OCCCCN2C[C@@H](C)O[C@@H](C)C2)nn1-c1ccc2ccccc2c1
38 | > 1000 nM | > 1000 nM | Cc1cc(OCCN2CCOCC2=O)nn1-c1ccc2ccccc2c1
